{"source": "patent US20090264310A1", "about": "“SCREENING METHOD FOR THE ISOLATION OF CENTROSOMAL CLUSTER-INHIBITORS AS ANTI-CANCER AGENTS” (priority 2006, published 2009)", "key": {"[1]": {"tested_on": "SCC114 cells", "assay": "Induction of multipolar mitotic spindles (immunofluorescence)", "format": "cell-based, human", "settings": "SCC114, 20 μM griseofulvin, 24 hours", "description": "(§1) All cell lines (BJ fibroblasts (available from ATCC), SCC114 (18), HeLa (ATCC), MCF7 (ATCC), N115 and U2OS (ATCC) were cultured in Dulbecco's modified Eagle's Medium (DMEM, PAA Laboratories, Pasching, Germany) supplemented with 10% FCS (PAA), 20 U/ml penicillin and 20 μg/ml streptomycin (Biochrom, Berlin, Germany) at 37° C., 5% CO2. SCC114-D1 cells stably expressing GFP-α-tubulin were generated by transfection (Fugene 6, Roche Diagnostics, Mannheim, Germany) of the transgene in pEGFP-C1 (Clontech, Heidelberg, Germany) and maintained under selective pressure by addition of geniticin (Gibco, Invitrogen, Karlsruhe, Germany) into complete medium at a concentration of […]. When indicated, griseofulvin (Sigma, Deisenhofen, Germany) was added to culture medium at several concentrations (0-100 μM), and incubation was continued for 24-72 h. Griseofulvin was dissolved in DMSO (Sigma); the final DMSO concentration in all experiments was 0.1%.\n(§2) Cells grown on glass coverslips were fixed in −20° C. methanol/acetone (1:1) for 7 min. After blocking non-specific sites with 10% goat serum (Sigma)/PBS for 5 min, the cells were incubated with primary antibodies for 1 h. Unlabelled antibodies were used at following dilutions: mouse monoclonal antibody to Eg5, 1:500 (Transduction Laboratories, Lexington, Ky.); mouse monoclonal antibody to γ-tubulin (GTU-88) at 1:300, rabbit polyclonal antibody to γ-tubulin at 1:100, and mouse monoclonal antibody to α-tubulin at 1:500 (Sigma, Deisenhofen, Germany); rabbit anti-phospho-histone H3, 1:500 (Upstate Biotechnology, Lake Placid, N.Y.); mouse monoclonal antibody to dynein, 1:50 (Chemicon International, Hampshire, UK); mouse monoclonal antibody to NuMA, 1:50 (Calbiochem, Darmstadt, Germany). Coverslips were then washed three times with PBS and incubated with secondary antibodies for 25 min before adding DAPI to a final concentration of 0.1 μg/ml (Sigma) to the antibody dilution for additional 5 min. The following fluorchrome-conjugated secondary antibodies were used: rabbit Alexa 488, 1:1000 (Molecular Probes, Invitrogen, Karlsruhe, Germany) and mouse Cy3, 1:400 (Jackson ImmunoResearch Laboratories, West Grove, PN). Coverslips were washed three times with PBS, rinsed shortly with water and post-fixed in absolute ethanol for 1 min. Airdryed Coverslips were embedded in Vectashield (Vector Laboratories, Burlingame, Calif.) or Fluoromount G (Southern Biotech, Birmingham, Ala.). Immunostained cells were examined using a Zeiss Axiovert 200 M fluorescence microscope (Göttingen, Germany) and images were processed with Photoshop (Adobe, München, Germany) software."}, "[2]": {"tested_on": "BJ fibroblasts", "assay": "Induction of multipolar mitotic spindles (immunofluorescence)", "format": "cell-based, human", "settings": "24 hours", "description": "as §1, §2"}, "[3]": {"tested_on": "U2OS cells", "assay": "Induction of multipolar mitotic spindles (immunofluorescence)", "format": "cell-based, human", "settings": "100 μM griseofulvin, 24 hours", "description": "as §1, §2"}, "[4]": {"tested_on": "HeLa cells", "assay": "Induction of multipolar mitotic spindles (immunofluorescence)", "format": "cell-based, human", "settings": "100 μM griseofulvin, 24 hours", "description": "as §1, §2"}, "[5]": {"tested_on": "MCF7 cells", "assay": "Induction of multipolar mitotic spindles (immunofluorescence)", "format": "cell-based, human", "settings": "24 hours", "description": "as §1, §2"}, "[6]": {"tested_on": "SCC114 cells", "assay": "G2/M cell cycle arrest, propidium iodide flow cytometry", "format": "cell-based, human", "settings": "SCC114, 20 μM griseofulvin, 24 hours", "description": "(§3) Cells were plated in 6-well plates (Greiner Bio-One, Kremsmuenster; Austria), treated 24 h later with different concentrations of griseofulvin and incubated for 24 h. Both attached and unattached cells were harvested and washed with PBS. For cell cycle, analysis cells were fixed in −20° C. methanol (70%) for at least 45 min. Cells were then washed with PBS and incubated in propidiumodide buffer containing 0.01 mg/ml propidiumiodide (Molecular Probes) and 0.25 mg/ml RNase A (Roth, Karlsruhe, Germany) for 30 min. For the histone H3-assay, cells were fixed in 70% ethanol, incubated with 0.25% Triton X-100/PBS for 15 min on ice, and stained with rabbit antibody to phospho-histone H3 (1:500; Upstate Biotechnology) for 2 h at room temperature, followed by 1 h of incubation with Alexa 488 conjugated anti-rabbit IgG (1:1000; Molecular Probes). DNA was counterstained with propidiumiodide buffer (see above) for 30 minutes at 37° C. Cells were analyzed with a FACScan flow cytometer (Becton Dickinson, Heidelberg, Germany) using CellQuest Software."}, "[7]": {"tested_on": "BJ fibroblasts", "assay": "G2/M cell cycle arrest, propidium iodide flow cytometry", "format": "cell-based, human", "settings": "20 μM griseofulvin, 24 hours", "description": "as §3"}, "[8]": {"tested_on": "HeLa cells", "assay": "G2/M cell cycle arrest, propidium iodide flow cytometry", "format": "cell-based, human", "settings": "20 μM griseofulvin, 24 hours", "description": "as §3"}, "[9]": {"tested_on": "N115 mouse neuroblastoma cells", "assay": "Inhibition of centrosome coalescence and microtubule network in interphase cells (immunofluorescence)", "format": "cell-based", "settings": "N115, 50 μM griseofulvin, 24 hours", "description": "as §1\nCells grown on glass coverslips were fixed in −20° C. methanol/acetone (1:1) for 7 min. After blocking non-specific sites with 10% goat serum (Sigma)/PBS for 5 min, the cells were incubated with primary antibodies for 1 h. […] Immunostained cells were examined using a Zeiss Axiovert 200 M fluorescence microscope (Göttingen, Germany) and images were processed with Photoshop (Adobe, München, Germany) software. […]"}, "[10]": {"tested_on": "SCC114 cells", "assay": "Mitotic cells by phospho-histone H3 two-parameter flow cytometry", "format": "cell-based, human", "settings": "SCC114, 35 μM griseofulvin, 24 hours (29.1% prior to treatment)", "description": "as §3"}, "[11]": {"tested_on": "BJ fibroblasts", "assay": "Mitotic cells by phospho-histone H3 two-parameter flow cytometry", "format": "cell-based, human", "settings": "35 μM griseofulvin, 24 hours (4.1% prior to treatment)", "description": "as §3"}, "[12]": {"tested_on": "BJ fibroblasts", "assay": "Colorimetric MTT cytotoxicity assay", "format": "cell-based", "settings": "Homo sapiens, Fibroblast, highest concentration 100 μM, read-out: growth inhibition", "description": "(§4) The cytotoxicity assay was performed as previously described (53). Briefly, MTT (Thiazolyl Blue Tetrazolium Blue; Sigma) was dissolved in PBS at 5 mg/ml and filtered. 0.3×10^5 cells were plated in 96 well plates (Nunc) 24 h before addition of griseofulvin. Cells were then treated with different concentrations of griseofulvin for 22 h. Stock MTT solution (10 μl per 100 μl medium) was added to all wells, and plates were incubated additional 2 h at 37° C. Medium was discarded, 200 μl DMSO was added to each well and incubated for 20 minutes at 37° C. When all crystals were dissolved, the plates were read on a microtiterplate […] reader (Tecan, Crailsheim, Germany), using a test wavelength of 650 nm and a reference wavelength of 750 nm."}, "[13]": {"assay": "Colorimetric MTT cytotoxicity assay", "format": "cell-based", "settings": "human, SCC114 cells, SCC114, 0-100 μM, read-out: IC50 cytotoxicity / half-maximal inhibition of cell growth", "description": "as §4"}, "[14]": {"tested_on": "SCC114 cells", "assay": "Dynein and NuMA localization on mitotic spindles (immunofluorescence)", "format": "cell-based, human", "settings": "SCC114, 100 μM griseofulvin, 24 hours", "description": "as §2, with “The following fluorchrome-conjugated secondary antibodies were used: rabbit Alexa 488, 1:1000 (Molecular Probes, Invitrogen, Karlsruhe, Germany) and mouse Cy3, 1:400 (Jackson ImmunoResearch Laboratories, West Grove, PN). Coverslips were washed three times with PBS, rinsed shortly with water and post-fixed in absolute ethanol for 1 min. Airdryed Coverslips were embedded in Vectashield (Vector Laboratories, Burlingame, Calif.) or Fluoromount G (Southern Biotech, Birmingham, Ala.).” left out, “software. […]” for “software.”"}}}
{"smiles": "COC1=CC(=O)C[C@@H](C)[C@]12Oc1c(Cl)c(OC)cc(OC)c1C2=O", "note": "[griseofulvin]", "values": [{"measurement": "percentage of multipolar spindles", "setting": "[1]", "result": 53, "unit": "%"}, {"measurement": "percentage of metaphases multipolar", "setting": "[2]; BJ fibroblasts, 20 μM griseofulvin", "result": 3, "unit": "%"}, {"measurement": "percentage of mitotic cells harbouring bipolar spindles", "setting": "[2]; normal diploid fibroblasts, 100 μM griseofulvin", "result": 87, "unit": "%"}, {"measurement": "percentage of mitoses multipolar", "setting": "[3]", "result": "more than 85%"}, {"measurement": "percentage of mitoses multipolar", "setting": "[4]", "result": "more than 85%"}, {"measurement": "percentage of multipolar spindles", "setting": "[5]; MCF7, 20 μM griseofulvin", "result": 20, "unit": "%"}, {"measurement": "percentage of mitoses multipolar", "setting": "[5]; MCF7, 100 μM griseofulvin", "result": "more than 85%"}, {"measurement": "percentage of cells arrested in G2/M phase", "setting": "[6]", "result": "91.2±3.9", "unit": "%"}, {"measurement": "percentage of cells in G2/M", "setting": "[7]", "result": "19.1±1.4", "unit": "%"}, {"measurement": "percentage of cells arrested in G2/M phase", "setting": "[8]", "result": "65.6±7.6", "unit": "%"}, {"measurement": "percentage of interphase cells harbouring only short and convoluted microtubules", "setting": "[9]", "result": 98, "unit": "%"}, {"measurement": "percentage of interphase cells lacking clustering of centrioles into a single aggregate", "setting": "[9]", "result": 68, "unit": "%"}, {"measurement": "percentage of cells in mitosis", "setting": "[10]", "result": 56.4, "unit": "%"}, {"measurement": "percentage of cells in mitosis", "setting": "[11]", "result": 5.5, "unit": "%"}, {"measurement": "inhibition at 100 µM", "setting": "[12]", "result": "25 ± 1", "unit": "%"}, {"measurement": "IC50 at 22 h", "setting": "[13]", "result": 35, "unit": "µM"}, {"measurement": "percentage of multipolar spindles labelled with antibody to NuMA", "setting": "[14]", "result": "99.5±0.5", "unit": "%"}, {"measurement": "percentage of multipolar spindles labelled with antibody to dynein", "setting": "[14]", "result": "99±1", "unit": "%"}]}
